This is an account of results in US20040048376A1, “Methods for modulating splicing and/or alternative splicing, and for identifying alternatively spliced units in genes” (priority 2000, published 2004).

The test system of assay [1] is beta-globin pre-mRNA carrying duplicated 3′ splice sites. Description: In vitro splicing of beta-globin pre-mRNA carrying duplicated 3′ splice sites. It is filed as biochemical. As to conditions: data not shown. The procedure:
To address whether DMSO has a similar activity on 3′ splice site selection, a pre-mRNA (C3′ −/−; FIG. 3A) which is spliced predominantly to the distal 3′ splice site (FIG. 3B, lane 1) was tested. As shown for 5′ splice site selection, C3′ −/− splicing was sensitive to increasing amounts of DMSO (FIG. 3B, lanes 2-4). At the highest concentration of DMSO (lane 4), more than 50% of splicing occurred at the proximal 3′ splice site. A derivative of C3′ −/− in which the central portion was substituted for the 3′ splice site region and a portion of NCAM alternative exon 18 (NCAM3′ RNA) was also tested. […] Alternative splicing of a beta-globin pre-mRNA carrying duplicated 3′ splice sites was also affected by DMSO (data not shown).

Assay [2] relates to constitutive splicing in nuclear extracts. Description: Constitutive (generic) splicing of a model pre-mRNA in nuclear extracts. It counts as biochemical, human. As to conditions: up to 2.5% DMSO. The text has this: DMSO was shown not to affect constitutive (generic) splicing in nuclear extracts. […] When distal 5′ splice site selection is promoted by an hnRNP A1 independent mechanism (e.g., secondary structure formation), 5′ splice site selection is not affected by DMSO. […] This effect is also specific since the addition of equivalent amounts of GST or gene 32 protein has no effect when added to DMSO-containing extracts. In addition, DMSO affects generic splicing in S-100 extracts which are post-nuclear extracts containing residual amounts of SR proteins and U2AF proteins.

`C[S+](C)[O-]` [DMSO, Dimethyl sulfoxide]: the alternative splicing result in assay [1] was “also affected”. Moreover, the “constitutive splicing of model pre-mRNA” value in assay [2] is reported as “remains spliced efficiently”.
